Converted amounts (≈) assume the structure as drawn. Where a name gives a salt, the structure may show the parent alone.
Legend:
[1] = Ulcers by constriction (stress) in the rat; format: in vivo; conditions: 4 h, rat; for responders at 10 mg/kg / inhibition in vivo at 10 mg/kg: 10 mg/kg ip
Procedure: The method described by Rossi and colleagues (Compt. Rend. Soc. Biol., 150, 2124, 1956) was followed in which the formation of gastric ulcers is induced by immobilising the animal, in a state of fast for 48 hours, in a net for a period of 4 hours.
The protection given by treatment with the drug under examination before the beginning of the constriction period is evaluated by counting both the ulcers and the number of subjects without ulcers.

[2] = Inhibition of spontaneous motility in the mouse; format: in vivo; conditions: mouse; for ED50: po, 0.5 h, os, 30 minutes after treatment, read-out: Spontaneous motility inhibition mouse ED50
Procedure: This is evaluated by an actophotometric method, which consists of placing the mice, 30 minutes after oral treatment with the drug or the carrier, in a cage provided with a photoelectric cell counter and counting the number of times the photoelectric cell is passed during a 10 minute stay.

nor-adrenalin = assay: Antagonism towards a lethal dose of nor-adrenalin in the rat (α-adrenolytic activity); format: in vivo
Procedure: Antagonism towards a lethal dose of nor-adrenalin in the rat
The animals are treated with a dose of nor-adrenalin (0.5 mg/kg) which is 100% lethal in animals. The activity is calculated by the number of animals protected from death by prior administration of the drug under examination one hour before the agonist. Where possible the ED50 was calculated.

[3] = Acute toxicity rat LD50 iv; conditions: in vivo
[4] = Acute toxicity under LD50 mouse; conditions: in vivo, ip
[5] = Antagonism towards electric shock convulsions in the mouse; format: in vivo; conditions: po, 0.5 h, mouse, 35 volt, read-out: Anti-convulsion activity, electric shock, mouse, % att.; for inhibition in vivo at 26 mg/kg: 26 mg/kg os
Procedure: This is evaluated by observing the protection given by pretreatment with the drug (30 minutes) against tonic convulsions obtained by applying a 35 volt current to the eyeballs.

[6] = Fibrillation induced by CaCl2 of the rat anaesthetised with urethane (anti-arrhythmic activity); format: in vivo; conditions: for selectivity ratio: in vivo, LD50 rat iv / ED50 CaCl2, read-out: I.T. (1), therapeutic index from the ratio LD50 rat iv/ED50; for ED50: rat anaesthetised with urethane, iv
Procedure: Fibrillation induced by CaCl2 of the rat anaesthetised with urethane (1 g/kg ip)
The method described by Malinow and colleagues (Rev. Argent. Cardiol., 19, 120, 1952) was followed, which consists of inducing cardiac fibrillation by administering intravenously 2 ml/kg of an 8% solution of CaCl2 in rats pretreated intravenously with scalar doses of anti-arrhythmics. The ED50 was calculated for each active drug.

[7] = system: Rabbit platelet aggregation; assay: Rabbit platelet aggregation in vitro; format: cell-based; conditions: Oryctolagus cuniculus, rabbit PRP, aggregation by sodium adenosine diphosphate, read-out: Platelet anti-aggregation activity, rabbit in vitro ED50
Procedure: Rabbit platelet aggregation in vitro The method of […] (Pharmacology, 7, 115, 1972) was followed. Blood taken from conscious rabbits is centrifuged in the presence of sodium citrate (3.8%) at 350 g. for 10 minutes, so as to separate the plasma rich in platelets (PRP) from the rest. The aggregation of the platelets is carried out by bringing the PRP into contact with adequate doses of sodium adenosine diphosphate in the presence of a possible inhibitor or its carrier. The measurement of aggregation is made continuously by a turbidimetric method.

[8] = Pinching the tail of the mouse (systemic analgesic activity); format: in vivo; conditions: po, 0.5 h, mouse, 30 minutes; for inhibition in vivo at 26 mg/kg: 26 mg/kg os
Procedure: To evaluate the analgesic activity, the method described by Bianchi and colleagues (Brit. J. Pharmacol., 9, 280, 1954) was followed which consists of applying an arterial pincer to the base of the tail in animals treated orally 30 minutes previously with the drug under examination, observing that the control animals react to the pain by squealing.

isolated rabbit atrium = assay: Arrhythmias induced by electrical stimulation of the isolated rabbit atrium (anti-arrhythmic activity); conditions: for EC30: Oryctolagus cuniculus, read-out: anti-arrhythmic activity, Electrical stimulation in isolated rabbit atrium ED30
Procedure: (§1) The ED30 in the presence of scalar concentrations of anti-arrhythmic substances was measured.

[9] = as above; conditions: TD / ED30, isolated rabbit atrium; read-out: I.T. (2), therapeutic index from the ratio TD/ED30
Procedure: as §1

[10] = Carrageen oedema in the conscious rat (anti-inflammatory activity); format: in vivo
Procedure: Anti-inflammatory activity was evaluated by the method of Winter and colleagues (Proc. Soc. Exp. Biol., 111, 544, 1962) by endoperitoneally injecting the product under examination one hour before inducing oedema by injecting 0.05 ml. of a 1% suspension of carrageen (intradermally into the plantar portion of a rear paw).
The difference between the volume of the paw determined plethysmographically one hour before and three hours after the carrageen gives a quantitative estimate of the activity of the product tested. Where possible, the ED30 was calculated.

[11] = Cataleptic activity in the mouse; format: in vivo; conditions: po; mouse, os; read-out: Cataleptic activity mouse ED50
[12] = read-out: Anti-ulcer activity, ulcers by stress in the rat, Protected rats %
[13] = read-out: Anti-ulcer activity, ulcers by stress in the rat, Reduction in ulcers %

Row | SMILES | responders at 10 mg/kg [1, 12] | inhibition in vivo at 10 mg/kg [1, 13] | ED50 [2] | LD50 [3] | LD50 [4] | inhibition in vivo at 26 mg/kg [5] | selectivity ratio [6] | ED50 [6] | IC50 [7] | inhibition in vivo at 26 mg/kg [8] | EC30 (isolated rabbit atrium) | TD (dose which abolishes the spontaneous contraction of the atrium) (isolated rabbit atrium; rabbit) | selectivity ratio [9] | further results
1 | CCN(CC)CCc1sc(=O)[nH]c1-c1ccc(F)cc1 [LR 602, 4-p-fluorophenyl-5-β-diethylaminoethyl-4-thiazolin-2-one] | 50% | 65% | 30 mg/kg | 84 mg/kg | 125 mg/kg | 0% | 24 | 3.5 mg/kg | 800 µg/mL (≈ 2720 µM) | 30% | 10 µg/mL (≈ 34 µM) | 300 µg/mL | 30 | α-adrenolytic activity lethal NA rat, percentage activity (ED50 lacking) (nor-adrenalin; 7 mg/kg os): 0%
2 | Cl.O=c1[nH]c(-c2ccc(F)cc2)c(CCN2CCCCC2)s1 [LR 617, 4-p-fluorophenyl-5-β-piperidinoethyl-4-thiazolin-2-one hydrochloride] | 10% | 17% | 19.6 mg/kg | 62 mg/kg | 100 mg/kg |  | 15 | 4 mg/kg | 800 µg/mL |  | 4.3 µg/mL | 300 µg/mL | 69 | α-adrenolytic activity lethal NA rat, percentage activity (ED50 lacking) (nor-adrenalin; 5 mg/kg os): 0%
3 | Cl.O=c1[nH]c(-c2ccc(F)cc2)c(CCN2CCOCC2)s1 [LR 618, 4-p-fluorophenyl-5-β-morpholinoethyl-4-thiazolin-2-one hydrochloride] |  |  | 60 mg/kg | 130 mg/kg | 250 mg/kg |  | 9 | 15 mg/kg | 650 µg/mL |  | 35.4 µg/mL | 300 µg/mL | 8.5 | responders at 30 mg/kg ([1]; 30 mg/kg ip, read-out: Anti-ulcer activity, ulcers by stress in the rat, Protected rats %): 50%; inhibition in vivo at 30 mg/kg ([1]; 30 mg/kg ip, read-out: Anti-ulcer activity, ulcers by stress in the rat, Reduction in ulcers %): 71%; Anti-inflammatory activity carrageenin oedema rat, percentage activity (ED30 lacking) ([10]; 60 mg/kg ip): 9.8%; α-adrenolytic activity lethal NA rat, percentage activity (ED50 lacking) (nor-adrenalin; 15 mg/kg os): 0%; inhibition in vivo at 60 mg/kg ([5]; 60 mg/kg os): 10%; ED50 [11]: 60 mg/kg; inhibition in vivo at 60 mg/kg ([8]; 60 mg/kg os, read-out: Systemic analgesic activity, tail pinching in mouse, %): 40%
4 | COc1ccc(-c2[nH]c(=O)sc2CCN(C)CCc2ccccc2)cc1 [LR 620, 4-p-methoxyphenyl-5-β-(N-methylphenylethylamino)-ethyl-4-thiazolin-2-one maleate] | 0% | 0% |  | 24 mg/kg | 100 mg/kg | 20% | 12 | 2 mg/kg | 650 µg/mL | 0% | 1 µg/mL |  | 30 | ED30 ([10]; 1 h, ip, one hour before carrageen, read-out: Anti-inflammatory activity carrageenin oedema rat ED30): 36 mg/kg; Spontaneous motility inhibition mouse, percentage activity (ED50 lacking) ([2]; 26 mg/kg os): 0%; ED50 (nor-adrenalin; Rattus norvegicus, po, 1 h, read-out: α-adrenolytic activity lethal NA rat ED50): 5 mg/kg; TD (dose which abolishes the spontaneous contraction of the atrium) (isolated rabbit atrium; isolated rabbit atrium): 30 µg/mL

Reference: US4061637A, “Certain 4-aryl-5-(4-phenylpiperazino)alkyl-4-thiazolin-2-ones” (priority 1974, dated 1977)
